Assay results from US9453038B2, “Glucokinase activator compounds, compositions containing such compounds, and methods of treatment” (Merck Sharp & Dohme Corp., priority 2012, dated 2016).
Read-outs that look alike come from different tables or passages of the source.

Molecular target: Recombinant human liver glucokinase (FLAG fusion protein) (Homo sapiens (Human), UniProt P35557)
Assay: glucokinase (GK) activation assay, Thio-NADH formation coupled to G6PDH, absorbance at 405 nm
Assay type: biochemical
Details: 2.5 mM Glu; for EC50: 30° C.; for Emax: OD value of DMSO control regarded as 100%
Description: The glucokinase activity can, for instance, be determined without directly measuring glucose-6-phosphate by measuring the amount of Thio-NADH generated during the production of phosphogluconolactone from glucose-6-phosphate by a reporter enzyme glucose-6-phosphate dehydrogenase.
To test the exemplified compounds, the following assay was employed. Recombinant human liver glucokinase was expressed as a FLAG fusion protein in E. coli, and purified on ANTIFLAG M2 AFFINITY GEL (Sigma). The assay was carried out at 30° C. in a 96-well plate. In the plate was distributed 69 μl each of assay buffer (25 mM Hepes Buffer: pH=7.2, 2 mM MgCl2, 1 mM ATP, 0.5 mM TNAD, 1 mM dithiothreitol), to which was added 1 μl of a DMSO solution of the compound or DMSO as control. Then, 20 μl of pre-ice-cooled enzyme mixture (FLAG-GK, 20 U/ml G6PDH) was distributed thereto, to which was added 10 μl of 25 mM glucose as substrate to initiate the reaction (final glucose concentration=2.5 mM). After starting the reaction, the absorbance at 405 nm was measured every 30 seconds for 10 minutes to evaluate the compound based on the initial increase for 5 minutes. FLAG-GK was added so that the increase of absorbance after 5 minutes fell between 0.05 to 0.1 in the presence of 1% DMSO.
The OD values of the respective compounds were measured in the respective concentrations, wherein the OD value of DMSO as control is regarded as 100%. From the OD values at the respective concentrations, Emax (%, 2.5 mM Glu) and EC50 (nM, 2.5 mM Glu) were calculated and used as indicators of the GK activation capability of the compounds. According to the above assay, the GK activation capability of the exemplified compounds of the present invention was determined. […] Where different enantiomers of the same compound were tested, two numbers are provided. Where 3 numbers are provided, for example, Ex. #30, data for the racemic form is also shown.

Chain of Recombinant human liver glucokinase (FLAG fusion protein) (P35557 other isoform, or with tags, fused parts or gaps): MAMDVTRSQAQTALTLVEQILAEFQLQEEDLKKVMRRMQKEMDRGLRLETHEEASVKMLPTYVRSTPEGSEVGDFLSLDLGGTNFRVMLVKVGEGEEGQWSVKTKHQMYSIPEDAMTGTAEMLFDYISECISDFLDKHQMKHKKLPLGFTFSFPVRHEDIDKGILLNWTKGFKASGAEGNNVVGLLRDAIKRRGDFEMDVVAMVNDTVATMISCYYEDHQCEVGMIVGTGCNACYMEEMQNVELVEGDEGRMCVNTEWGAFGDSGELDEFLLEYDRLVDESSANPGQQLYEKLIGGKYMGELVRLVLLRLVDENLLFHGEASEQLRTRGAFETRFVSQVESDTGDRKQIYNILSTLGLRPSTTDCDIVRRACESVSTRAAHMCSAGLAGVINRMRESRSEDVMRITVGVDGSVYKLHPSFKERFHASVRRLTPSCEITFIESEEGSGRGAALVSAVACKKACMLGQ

| Structure (SMILES) | EC50 [nM] | Emax (read-out: Emax) [%] | Emax [%] |
| --- | --- | --- | --- |
| CCS(=O)(=O)c1ccc(Oc2cc3cc(-c4ccc(CCC(=O)OC)cn4)[nH]c3cc2C2CCC(=O)N2C)cc1 (stereo not shown) [Example 1, METHYL 3-(6-{5-[4-(ETHYLSULFONYL)PHENOXY]-6-(1-METHYL-5-OXOPYRROLIDIN-2-YL)-1H-INDOL-2-YL}PYRIDIN-3-YL)PROPANOATE] | 1.9 | 624 | – |
| CCS(=O)(=O)c1ccc(Oc2cc3cc(-c4ccc(CCC(=O)O)cn4)[nH]c3cc2C2CCC(=O)N2C)cc1 (stereo not shown) [Example 2, 3-(6-{5-[4-(ETHYLSULFONYL)PHENOXY]-6-(1-METHYL-5-OXOPYRROLIDIN-2-YL)-1H-INDOL-2-YL}PYRIDIN-3-YL)PROPANOIC ACID] | 53.4 | 652 | – |
| COC(=O)CCc1ccc(Oc2cc3cc(-c4ccc(C(F)(F)F)cn4)[nH]c3cc2C2CCC(=O)N2C)cc1 (stereo not shown) [Example 4, METHYL 3-[4-({6-(1-METHYL-5-OXOPYRROLIDIN-2-YL)-2-[5-(TRIFLUORO-METHYL)PYRIDIN-2-YL]-1H-INDOL-5-YL}OXY)PHENYL]PROPIONATE] | – | 455 | 453.8 |
| CS(=O)(=O)c1ccc(Oc2cc3cc(-c4ccc(CCC(=O)O)cn4)[nH]c3cc2Oc2ccccc2F)cc1 [Example 7, 3-(6-{6-(2-FLUOROPHENOXY)-5-[4-(METHYLSULFONYL)PHENOXY]-1H-INDOL-2-YL}PYRIDIN-3-YL)PROPANOIC ACID] | 774 | 15.7 | – |
| CN1C(=O)CCC1c1cc2[nH]c(-c3ccc(C(=O)NCCC(=O)O)cn3)cc2cc1Oc1ccc(S(C)(=O)=O)nc1 (stereo not drawn) [Example 8, N-({6-[6-(1-METHYL-5-OXOPYRROLIDIN-2-YL)-5-{[6-(METHYL-SULFONYL)PYRIDIN-3-YL]OXY}-1H-INDOL-2-YL]PYRIDIN-3-YL}-CARBONYL)-β-ALANINE] | 116 | 501 | – |
| CS(=O)(=O)c1ccc(Oc2cc3cc(-c4ccc(CCC(=O)O)cn4)[nH]c3nc2CN2CCCC2=O)cn1 [Example 9, 3-[6-(5-{[6-(METHYLSULFONYL)PYRIDIN-3-YL]OXY}-6-[(2-OXOPYRROLIDIN-1-YL)METHYL]-1H-PYRROLO[2,3-B]PYRIDIN-2-YL)PYRIDIN-3-YL]PROPANOIC ACID] | 533 | – | – |
| COC(=O)CCc1ccc(-c2cc3cc(Oc4ccc(C(=O)N5CCC5)nc4)c(C4CCCN4C(C)=O)cc3[nH]2)nc1 (stereo not shown) [Example 10, METHYL 3-{6-[6-(1-ACETYLPYRROLIDIN-2-YL)-5-{[6-(AZETIDIN-1-YLCARBONYL)PYRIDIN-3-YL]OXY}-1H-INDOL-2-YL]PYRIDIN-3-YL}PROPANOATE] | 13.9 | 419 | – |
| CN1C(=O)CCC1c1cc2[nH]c(-c3ccc(OCC(=O)O)cn3)cc2cc1Oc1ccc(S(C)(=O)=O)nc1 (stereo not shown) [Example 18, 2-((6-(6-(1-methyl-5-oxopyrrolidin-2-yl)-5-((6-(methylsulfonyl)pyridin-3-yl)oxy)-1H-indol-2-yl)pyridin-3-yl)oxy)acetic acid] | 81 | 612 | – |
| COCc1ccc(Oc2cc3cc(-c4ccc(CCC(=O)O)cn4)[nH]c3cc2C2CCC(=O)N2C)cn1 (stereo not shown) [Example 19, 3-(6-(5-((6-(methoxymethyl)pyridin-3-yl)oxy)-6-(1-methyl-5-oxopyrrolidin-2-yl)-1H-indol-2-yl)pyridin-3-yl)propanoic acid] | 71.8 | 431 | – |
| CN1C(=O)CCC1c1cc2[nH]c(-c3ccc(C(F)(F)F)cn3)cc2cc1Oc1ccc(CC(=O)O)cc1 (stereo not shown) [Example 20, 2-(4-((6-(1-methyl-5-oxopyrrolidin-2-yl)-2-(5-(trifluoromethyl)pyridin-2-yl)-1H-indol-5-yl)oxy)phenyl)acetic acid] | 63.9 | 521 | – |
| CN1C(=O)CCC1c1cc2[nH]c(-c3ccccc3)cc2cc1Oc1ccc(CCC(=O)O)cc1 (stereo not shown) [Example 22, 3-(4-((6-(1-methyl-5-oxopyrrolidin-2-yl)-2-phenyl-1H-indol-5-yl)oxy)phenyl)propanoic acid] | 456 | 410 | – |
| CN1C(=O)CCC1c1cc2[nH]c(-c3ccccn3)cc2cc1Oc1ccc(CC(=O)O)cc1 (stereo not shown) [Example 27, 2-(4-((6-(1-methyl-5-oxopyrrolidin-2-yl)-2-(pyridin-2-yl)-1H-indol-5-yl)oxy)phenyl)acetic acid] | 23.8 | 630 | – |
| CN1C(=O)CCC1c1cc2[nH]c(-c3nc(CC(=O)O)c(Cl)s3)cc2cc1Oc1ccc(S(C)(=O)=O)nc1 (stereo not shown) [Example 30, 2-(5-chloro-2-(6-(1-methyl-5-oxopyrrolidin-2-yl)-5-((6-(methylsulfonyl)pyridin-3-yl)oxy)-1H-indol-2-yl)thiazol-4-yl)acetic acid] | 49.1 | 506 | – |
| CN1C(=O)CCC1c1cc2[nH]c(-c3ncc(CCC(=O)O)s3)cc2cc1Oc1ccc(S(C)(=O)=O)nc1 (stereo not shown) [Example 31, 3-(2-(6-(1-methyl-5-oxopyrrolidin-2-yl)-5-((6-(methylsulfonyl)pyridin-3-yl)oxy)-1H-indol-2-yl)thiazol-5-yl)propanoic acid] | 68.8 | 599 | – |
| COC(=O)Cc1csc(-c2cc3cc(Oc4ccc(S(C)(=O)=O)cc4)c(C4CCC(=O)N4C)cc3[nH]2)n1 (stereo not shown) [Example 32, methyl 2-(2-(6-(1-methyl-5-oxopyrrolidin-2-yl)-5-(4-(methylsulfonyl)phenoxy)-1H-indol-2-yl)thiazol-4-yl)acetate] | 65.1 | 566 | – |
| CN1C(=O)CCC1c1cc2[nH]c(-c3nc(CC(=O)O)c(Cl)s3)cc2cc1Oc1ccc(S(C)(=O)=O)cc1 (stereo not shown) [Example 33, 2-(5-chloro-2-(6-(1-methyl-5-oxopyrrolidin-2-yl)-5-(4-(methylsulfonyl)phenoxy)-1H-indol-2-yl)thiazol-4-yl)acetic acid] | 47.4 | 586 | – |
| CN1C(=O)CCC1c1cc2[nH]c(-c3nc(CC(=O)O)cs3)cc2cc1Oc1ccc(S(C)(=O)=O)cc1 (stereo not shown) [Example 34, 2-(2-(6-(1-methyl-5-oxopyrrolidin-2-yl)-5-(4-(methylsulfonyl)phenoxy)-1H-indol-2-yl)thiazol-4-yl)acetic acid] | 118 | 606 | – |

Further compounds by falling EC50, results first:

| EC50 [nM] | Emax (read-out: Emax) [%] | Emax [%] | Structure (SMILES) |
| --- | --- | --- | --- |
| 797 | 628 | – | CCS(=O)(=O)c1ccc(Oc2cc3cc(-c4ccc(C(F)(F)F)cn4)[nH]c3cc2C2CCC(=O)N2CC(=O)O)cc1 (stereo not shown) [Example 3, (2-{5-[4-(ETHYLSULFONYL)PHENOXY]-2-[5-(TRIFLUOROMETHYL)PYRIDIN-2-YL]-1H-INDOL-6-YL}-5-OXOPYRROLIDIN-1-YL)ACETIC ACID] |
| 187 | 410 | – | CC(=O)N1CCCC1c1cc2[nH]c(-c3ccc(CCC(=O)O)cn3)cc2cc1Oc1ccc(C(=O)N2CCC2)nc1 (stereo not shown) [Example 11, 3-{6-[6-(1-ACETYLPYRROLIDIN-2-YL)-5-{[6-(AZETIDIN-1-YLCARBONYL)PYRIDIN-3-YL]OXY}-1H-INDOL-2-YL]PYRIDIN-3-YL}PROPANOIC ACID] |
| 108 | 643 | – | CN1C(=O)CCC1c1cc2[nH]c(-c3ccc(CC(C)(C)C(=O)O)cn3)cc2cc1Oc1ccc(S(C)(=O)=O)nc1 (stereo not shown) [Example 17, 2,2-dimethyl-3-(6-(6-(1-methyl-5-oxopyrrolidin-2-yl)-5-((6-(methylsulfonyl)pyridin-3-yl)oxy)-1H-indol-2-yl)pyridin-3-yl)propanoic acid] |
| 53.6 | 614 | – | CCS(=O)(=O)c1ccc(Oc2cc3cc(-c4ccc(P(C)(=O)O)cn4)[nH]c3cc2C2CCC(=O)N2C)cc1 (stereo not shown) [Example 12, (6-(5-(4-(ETHYLSULFONYL)PHENOXY)-6-(1-METHYL-5-OXOPYRROLIDIN-2-YL)-1H-INDOL-2-YL)PYRIDIN-3-YL)(METHYL)PHOSPHINIC ACID] |
| 39.1 | 628 | – | CN1C(=O)CCC1c1cc2[nH]c(-c3cnccn3)cc2cc1Oc1ccc(CCC(=O)O)cc1 (stereo not shown) [Example 21, 3-(4-((6-(1-methyl-5-oxopyrrolidin-2-yl)-2-(pyrazin-2-yl)-1H-indol-5-yl)oxy)phenyl)propanoic acid] |
| 21 | 649 | – | COC(=O)Cc1ccc(Oc2cc3cc(-c4ccccn4)[nH]c3cc2C2CCC(=O)N2C)cc1 (stereo not shown) [Example 25, methyl 2-(4-((6-(1-methyl-5-oxopyrrolidin-2-yl)-2-(pyridin-2-yl)-1H-indol-5-yl)oxy)phenyl)acetate] |
| 4.3 | 545 | – | COC(=O)CCc1ccc(Oc2cc3cc(-c4ccccn4)[nH]c3cc2C2CCC(=O)N2C)cc1 (stereo not shown) [Example 26, methyl 3-(4-((6-(1-methyl-5-oxopyrrolidin-2-yl)-2-(pyridin-2-yl)-1H-indol-5-yl)oxy)phenyl)propanoate] |
| 2.1 | 574 | – | COC(=O)CCc1ccc(Oc2cc3cc(-c4cnccn4)[nH]c3cc2C2CCC(=O)N2C)cc1 (stereo not shown) [Example 23, methyl 3-(4-((6-(1-methyl-5-oxopyrrolidin-2-yl)-2-(pyrazin-2-yl)-1H-indol-5-yl)oxy)phenyl)propanoate] |
